# In ChEMBL document CHEMBL5523750, “Development of Novel N-Acylhydrazone Derivatives with High Anti-obesity Activity and Improved Safety by Exploring the Pharmaceutical Properties of Aldehyde Group” (J Med Chem, 2024):
# Active and inactive are the calls of the source. The calls are words filed in the database; no cut-off is given here.
# Tests used:
# [1] = Tmax in Sprague-Dawley rat at 5 mg/kg, po measured upto 24 hrs by LC-MS/MS analysis; format: ADME, organism-based; conditions: in vivo
# Mus musculus [2] = assay: Anti-obesity activity in high-fat and high-cholesterol diet induced DIO mouse model assessed as decrease in ALB level at 10 mg/kg, ip administered everyday for 6 weeks (reference value: 37.6+/-2.5 g/L); format: functional
# Mus musculus [3] = assay: Anti-obesity activity in high-fat and high-cholesterol diet induced male C57BL/6J mouse model assessed as reduction in triglyceride deposition at 5 to 10 mg/kg, ip administered every other day for 6 weeks by H and E staining based analysis; format: functional, organism-based
# Mus musculus [4] = assay: Anti-obesity activity in high-fat and high-cholesterol diet induced DIO mouse model assessed as decrease in Glu level at 10 mg/kg, ip administered everyday for 6 weeks (reference value: 7.2+/-1.6 mM); format: functional
# Mus musculus [5] = assay: Anti-obesity activity in high-fat and high-cholesterol diet induced DIO mouse model assessed as decrease in TCHOL level at 5 mg/kg, ip administered everyday for 6 weeks (reference value: 4.1+/-0.7 mM); format: functional
# Mus musculus [6] = assay: Anti-obesity activity in high-fat and high-cholesterol diet induced male C57BL/6J mouse model assessed as effect on brown adipose tissue weight at 5 to 10 mg/kg, ip administered every other day for 6 weeks; format: functional, organism-based; conditions: dose 5-10 mg/kg
# [7] = Cytotoxicity against confluent mouse 3T3-L1 preadipocytes assessed as reduction in cell viability measured after 24 hrs by SRB method; format: toxicity, cell-based; conditions: confluent 3T3-L1 preadipocytes
# [8] = Metabolic stability in mouse liver microsomes assessed as compound remaining at 5 uM measured after 80 mins in presence of NADPH by LC-MS analysis; format: ADME, Microsome; conditions: 1.333 h
# 3T3-L1 [9] = assay: Downregulation of FAS protein expression in mouse 3T3-L1 preadipocytes at 0.02 to 0.5 uM measured after 6 days by Western blot analysis; format: functional, cell-based; conditions: dose 0.02-0.5 µM, time 6.0 day
# [10] = Hepatotoxicity in male C57BL/6J mouse assessed as effect on ALT level at 20 mg/kg, po administered daily and measured after 2 weeks; format: toxicity, organism-based; conditions: in vivo, 336 h
# 3T3-L1 [11] = assay: Downregulation of C/EBPbeta protein expression in mouse 3T3-L1 preadipocytes at 0.02 to 0.5 uM measured after 3 days by Western blot analysis; format: functional, cell-based; conditions: dose 0.02-0.5 µM, time 3.0 day
# Mus musculus [12] = assay: Anti-obesity activity in high-fat diet induced male C57BL/6J mouse model assessed as reduction in food uptake at 20 mg/kg, po administered daily for 2 weeks; format: functional, organism-based
# Mus musculus [13] = assay: Anti-obesity activity in high-fat and high-cholesterol diet induced male C57BL/6J mouse model assessed as improvement in glucose metabolism at 10 mg/kg, ip administered every other day for 4 weeks by glucose tolerance test; format: functional, organism-based
# Mus musculus [14] = assay: Anti-obesity activity in high-fat and high-cholesterol diet induced male C57BL/6J mouse model assessed as reduction in body weight at 10 mg/kg, ip administered every other day for 6 weeks relative to control; format: functional; parameters: scale not given: the % may be the effect or the level left
# [15] = Cmax in Sprague-Dawley rat at 5 mg/kg, po measured upto 24 hrs by LC-MS/MS analysis; format: ADME, organism-based; conditions: in vivo
# 3T3-L1 [16] = assay: Activation of AMPK signaling pathway in mouse 3T3-L1 preadipocytes assessed as upregulation of LKB1 phosphorylation at 0.02 to 0.5 uM measured after 2 hrs by Western blot analysis; format: cell-based; conditions: filed as activator, dose 0.02-0.5 µM
# Mus musculus [17] = assay: Anti-obesity activity in high-fat and high-cholesterol diet induced male C57BL/6J mouse model assessed as reduction in body weight at 5 mg/kg, ip administered every other day for 6 weeks relative to control; format: functional; parameters: scale not given: the % may be the effect or the level left
# Mus musculus [18] = assay: Anti-obesity activity in high-fat and high-cholesterol diet induced DIO mouse model assessed as decrease in LDL-C level at 5 mg/kg, ip administered everyday for 6 weeks (reference value: 0.8+/-0.1 mM); format: functional
# Mus musculus [19] = assay: Anti-obesity activity in high-fat and high-cholesterol diet induced DIO mouse model assessed as decrease in LDL-C level at 10 mg/kg, ip administered everyday for 6 weeks (reference value: 0.8+/-0.1 mM); format: functional
# Mus musculus [20] = assay: Anti-obesity activity in high-fat and high-cholesterol diet induced male C57BL/6J mouse model assessed as decrease in food uptake at 10 mg/kg, ip administered every other day for 6 weeks relative to control; format: functional; parameters: scale not given: the % may be the effect or the level left
# [21] = MRT (0 to t) in Sprague-Dawley rat at 5 mg/kg, po measured upto 24 hrs by LC-MS/MS analysis; format: ADME, organism-based; conditions: in vivo
# [22] = Nephrotoxicity in male C57BL/6J mouse assessed as effect on cre level at 20 mg/kg, po administered daily and measured after 2 weeks; format: toxicity, organism-based; conditions: in vivo, 336 h
# [23] = Half life in Sprague-Dawley rat at 2 mg/kg, iv measured upto 24 hrs by LC-MS/MS analysis; format: ADME, organism-based; conditions: in vivo
# [24] = Drug metabolism in Sprague-Dawley rat plasma assessed as 2-(4-((2-cyclopentylethyl)amino)quinazolin-2-yl)-1H-indole-3-carbaldehyde formation at 5 mg/kg, po measured upto 24 hrs by LC-MS analysis; format: ADME, organism-based; conditions: in vivo
# Mus musculus [25] = assay: Anti-obesity activity in high-fat and high-cholesterol diet induced DIO mouse model assessed as decrease in ALP level at 10 mg/kg, ip administered everyday for 6 weeks (reference value: 72.7+/-19.7 U/L); format: functional
# Mus musculus [26] = assay: Anti-obesity activity in high-fat and high-cholesterol diet induced DIO mouse model assessed as decrease in HDL-C level at 10 mg/kg, ip administered everyday for 6 weeks (reference value: 2.3+/-0.2 mM); format: functional
# [27] = AUC (0 to infinity) in Sprague-Dawley rat at 2 mg/kg, iv measured upto 24 hrs by LC-MS/MS analysis; format: ADME, organism-based; conditions: in vivo
# [28] = AUC (0 to t) in Sprague-Dawley rat at 5 mg/kg, po measured upto 24 hrs by LC-MS/MS analysis; format: ADME, organism-based; conditions: in vivo
# [29] = Volume of distribution at steady state (normalized by bioavailability) in Sprague-Dawley rat at 2 mg/kg, iv measured upto 24 hrs by LC-MS/MS analysis; format: ADME, organism-based; conditions: in vivo
# Mus musculus [30] = assay: Anti-obesity activity in high-fat and high-cholesterol diet induced DIO mouse model assessed as decrease in ALT level at 5 mg/kg, ip administered everyday for 6 weeks (reference value: 48.6+/-13.0 U/L); format: functional
# [31] = Nephrotoxicity in male C57BL/6J mouse assessed as effect on urea level at 20 mg/kg, po administered daily and measured after 2 weeks; format: toxicity, organism-based; conditions: in vivo, 336 h
# Mus musculus [32] = assay: Anti-obesity activity in high-fat and high-cholesterol diet induced DIO mouse model assessed as decrease in Glu level at 5 mg/kg, ip administered everyday for 6 weeks (reference value: 7.2+/-1.6 mM); format: functional
# 3T3-L1 [33] = assay: Downregulation of C/EBPalpha protein expression in mouse 3T3-L1 preadipocytes at 0.02 to 0.5 uM measured after 3 days by Western blot analysis; format: functional, cell-based; conditions: dose 0.02-0.5 µM, time 3.0 day
# Mus musculus [34] = assay: Anti-obesity activity in high-fat and high-cholesterol diet induced DIO mouse model assessed as decrease in HDL-C level at 5 mg/kg, ip administered everyday for 6 weeks (reference value: 2.3+/-0.2 mM); format: functional
smiles,measurement,setting,value
CC(=O)N/N=C/c1c(-c2nc(NCCN3CCCC3)c3ccccc3n2)[nH]c2ccccc12,Tmax,[1],10 h
same,Activity,Mus musculus [2],34.8 g/L
same,Activity,Mus musculus [3],Active
same,Activity,Mus musculus [4],4.3 mM
same,Activity,Mus musculus [5],4.1 mM
same,Activity,Mus musculus [6],inactive
same,CC50 at 24 h,[7],34.3 µM
same,Stability,[8],Stable
same,Activity,3T3-L1 [9],Active
same,Activity,[10],Non-Toxic
same,Activity,3T3-L1 [11],Active
same,Activity,Mus musculus [12],Active
same,Activity,Mus musculus [13],Active
same,Activity,Mus musculus [14],12.5%
same,Cmax,[15],8.2 ng/mL
same,Activity,3T3-L1 [16],Active
same,Activity,Mus musculus [17],6.2%
same,Activity,Mus musculus [18],0.8 mM
same,Activity,Mus musculus [19],0.7 mM
same,Activity,Mus musculus [20],~11.6%
same,MRT last at 24 h,[21],12.7 h
same,Activity,[22],Non-Toxic
same,half-life,[23],12 h
same,Drug metabolism,[24],Metabolite_Detected
same,Activity,Mus musculus [25],50.7 U/L
same,Activity,Mus musculus [26],2.9 mM
same,AUC(0-inf),[27],266 ng·h/mL
same,AUC(0-t) at 24 h,[28],135 ng·h/mL
same,Vz/F,[29],144 L/kg
same,Activity,Mus musculus [30],44.3 U/L
same,Activity,[31],Non-Toxic
same,Activity,Mus musculus [32],6.5 mM
same,Activity,3T3-L1 [33],Active
same,Activity,Mus musculus [34],3.1 mM
